Data taken from publication PMC6502695 (Natural product research, 2018).

Tests used:
Assay type in all cases: in vitro ADME
human SULT 1A3 = human SULT 1A3 (Homo sapiens, UniProt P0DMM9); test: Sulfating activity of purified human SULT1A3
[1] = Sulfating activity of human small intestine cytosol; details: mean ± SD, three experiments
human SULT 1A2 = human SULT 1A2 (Homo sapiens, UniProt P50226); test: Sulfating activity of purified human SULT1A2; details: substrate 10 μM, mean ± SD, three experiments
human SULT 1A2, sequence (P50226 whole entry): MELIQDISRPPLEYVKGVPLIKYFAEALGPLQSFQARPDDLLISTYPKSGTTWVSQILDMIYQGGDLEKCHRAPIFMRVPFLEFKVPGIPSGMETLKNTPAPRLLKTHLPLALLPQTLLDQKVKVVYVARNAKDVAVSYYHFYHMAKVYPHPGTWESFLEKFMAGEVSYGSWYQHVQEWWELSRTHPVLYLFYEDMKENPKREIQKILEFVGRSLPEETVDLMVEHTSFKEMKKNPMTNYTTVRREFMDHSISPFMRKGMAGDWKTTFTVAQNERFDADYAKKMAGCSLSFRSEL

human SULT 1C4 = human SULT 1C4 (Homo sapiens, UniProt O75897); test: Sulfating activity of purified human SULT1C4; details: substrate 10 μM, mean ± SD, three experiments
human SULT 1C4, sequence (O75897 whole entry): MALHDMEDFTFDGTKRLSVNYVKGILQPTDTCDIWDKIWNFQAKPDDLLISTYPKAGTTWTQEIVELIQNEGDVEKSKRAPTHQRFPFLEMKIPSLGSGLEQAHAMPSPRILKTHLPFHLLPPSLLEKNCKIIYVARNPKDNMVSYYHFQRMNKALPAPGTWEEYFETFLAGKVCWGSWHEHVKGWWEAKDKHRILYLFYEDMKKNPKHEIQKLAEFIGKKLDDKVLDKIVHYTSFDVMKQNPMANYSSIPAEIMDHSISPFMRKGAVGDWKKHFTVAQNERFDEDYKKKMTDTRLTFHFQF

[2] = Sulfating activity of human liver cytosol; details: mean ± SD, three experiments
human SULT 1A1 = human SULT 1A1 (Homo sapiens, UniProt P50225); test: Sulfating activity of purified human SULT1A1; details: substrate 10 μM, mean ± SD, three experiments
human SULT 1A1, sequence (P50225 whole entry): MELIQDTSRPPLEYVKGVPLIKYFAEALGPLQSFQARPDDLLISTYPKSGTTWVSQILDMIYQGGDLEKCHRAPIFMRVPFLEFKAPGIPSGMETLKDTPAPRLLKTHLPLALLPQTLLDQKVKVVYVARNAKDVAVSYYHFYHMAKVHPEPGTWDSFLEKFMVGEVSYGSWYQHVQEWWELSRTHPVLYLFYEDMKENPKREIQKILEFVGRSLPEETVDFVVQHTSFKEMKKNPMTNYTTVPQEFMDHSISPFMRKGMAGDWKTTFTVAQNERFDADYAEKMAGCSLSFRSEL

[3] = SULT 1A3, substrate 10 μM, mean ± SD, three experiments

human SULT 1A3, sequence (P0DMM9 whole entry): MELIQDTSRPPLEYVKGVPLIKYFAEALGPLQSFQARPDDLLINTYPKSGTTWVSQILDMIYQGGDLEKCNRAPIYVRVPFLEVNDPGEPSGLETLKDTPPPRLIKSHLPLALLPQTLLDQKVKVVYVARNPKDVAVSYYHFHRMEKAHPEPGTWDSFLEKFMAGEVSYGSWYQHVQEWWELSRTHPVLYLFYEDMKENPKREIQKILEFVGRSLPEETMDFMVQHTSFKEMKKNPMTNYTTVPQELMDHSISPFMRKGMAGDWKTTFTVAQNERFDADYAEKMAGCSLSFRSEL

SMILES | Specific Activity (nmol substrate sulfated/min/mg purified enzyme) (human SULT 1A3; [3]) [nmol/min/mg] | Specific Activity (pmol substrate sulfated/min/mg protein) ([1]; substrate 10 μM) [pmol/min/mg] | Specific Activity (pmol substrate sulfated/min/mg protein) ([1]; substrate 50 μM) [pmol/min/mg] | Specific Activity (nmol substrate sulfated/min/mg purified enzyme) (human SULT 1A2) [nmol/min/mg] | Specific Activity (nmol substrate sulfated/min/mg purified enzyme) (human SULT 1C4) [nmol/min/mg] | Specific Activity (pmol substrate sulfated/min/mg protein) ([2]; substrate 10 μM) [pmol/min/mg] | Specific Activity (pmol substrate sulfated/min/mg protein) ([2]; substrate 50 μM) [pmol/min/mg] | Specific Activity (nmol substrate sulfated/min/mg purified enzyme) (human SULT 1A1) [nmol/min/mg] | Specific Activity (nmol substrate sulfated/min/mg purified enzyme) (human SULT 1A3; human, 10 μM) [nmol/min/mg]
O=c1cc(-c2ccc(O)cc2)oc2cc(O)cc(O)c12 [Apigenin] | 6.38 ± 0.40 | 88.59 ± 1.07 | 113.24 ± 0.32 | 7.90 ± 0.32 | 3.58 ± 0.09 | 20.87 ± 5.39 | 25.04 ± 2.20 | 10.67 ± 0.99 | 
COc1ccc([C@@H]2CC(=O)c3c(O)cc(O)cc3O2)cc1O [Hesperetin] | 29.80 ± 0.74 | 458.26 ± 11.82 | 643.61 ± 45.12 | 28.16 ± 0.38 | 13.34 ± 0.49 | 139.79 ± 6.87 | 181.73 ± 13.25 | 44.17 ± 1.16 | 
O=C1C[C@@H](c2ccc(O)cc2)Oc2cc(O)cc(O)c21 [Naringenin] |  | 252.86 ± 13.22 | 354.21 ± 13.98 | 17.51 ± 0.31 | 11.99 ± 0.17 | 135.32 ± 15.67 | 156.97 ± 17.94 | 24.85 ± 0.65 | 14.90 ± 0.15
